Assay results published in US20100047332A1, “Treatments for burns using thyroid hormone compound in a human” (priority 2005, published 2010).

Legend:
Assay type in all cases: in vivo, human
[1] = test system: cellulite and subcutaneous fat; experiment: TriAc cream before exercise for cellulite; details: after twelve applications
Experimental: TriAc-containing creams were produced by dissolving TriAc in a suitable solvent and adding it to a cream base. […] TriAc could also be added to the oil phase of a water in oil or a oil in water cream base, or charged in a solid lipid nanoparticle, or applied as a liposome, or a matrix patch as is known in the art.
The cream was only applied before exercise. More specifically, application occurred between 30 minutes and 2 hours before mild exercise. The mild exercise involved the underlying musculature, and included long walks, jogging, or gym exercises involving light resistance exercises, or stairmasters, treadmills and the like.
The amount of cream applied was always less than 5 ml, just sufficient to cover the area, usually less than 2 ml. […] For most of the applications, the amount of cream applied was less than 3 ml and usually less than 1.5 ml. In these applications, less than 0.4 mg was applied and as little as 80 μg was applied in at least some of the applications. Exercise occurred one to three times a week. Consequently, the cream was only applied one to three times a week. Two grams of cream, approximately 2 mls, was sufficient to cover the buttocks, back of thighs, and anterior waist area.

[2] = test system: plasma glycerol (lipolysis of fat); experiment: Plasma glycerol assay before and after mild exercise with topical TriAc cream; details: for glycerol response relative to baseline: Triac applied; for Percentage change: glycerol after exercise vs baseline
Excerpt: This example uses a glycerol assay to determine the effectiveness of topically applied thyroid hormones or thyroid hormone like molecules as described in the art to increase lipolysis of fat when topically applied. More specifically, this example uses a glycerol assay to determine the effectiveness of topically applied thyroid hormones or thyroid hormone like molecules as described in the art to dissolve fat when topically applied in an amount less than a single oral dose used typically for daily therapeutic or replacement dosages.
Three adult humans (A, B, and C) with normally functioning thyroids and no history of cardiovascular disease, varying by age, sex, BMI, body surface area, and physical activity, were tested. Age varies from less than 25 (subject A) to over 40 (subjects B and C). BMI varied between 18 (A), 20 (C), and 30 (B). Physical activity was greatest in subject A, who had the lowest BMI and was also the youngest. The other two subjects typically had less than three hours of exercise per week. No food or drink other than water was given two hours prior to application of the TriAc formulation. With this short fast, the subjects are still in the fed state and plasma glycerol levels would be expected to not change during exercise, as taught in the literature for young fit subjects (Coyle et al, J Appl Physiol. 1985 August; 59(2):429-33, herein incorporated by reference). The fed state as defined herein is an individual not having an overnight fast. […] The amount of cream and thus TriAc amount was not varied according to age, sex, or weight. The cream was applied intermittently: application days were separated by at least two days.
The subjects rested for 30 minutes and then exercised in a defined manner to maintain either 65-70% of their age adjusted maximal heart rate or 110-120 strides on a Precor 544 EFX elliptical trainer for 30 minutes. Heart rate was monitored continuously with a Polar wireless monitoring device. Room temperature varied between 72 and 84 degrees. Calories expended (from Precor) per kilogram were approximately constant among each participant and between participants on a per kilogram basis during each of the exercise sessions and were usually around 3.0 to 3.5 calories per kg (see Table 4). After a 30 minute exercise session and a 5 minute programmed cool down session, another plasma glycerol assay was taken. The samples were immediately refrigerated and centrifuged after 0 to 10 hours, each exercise set treated exactly the same way, frozen at −40° C. and assayed with the Sigma-Aldrich plasma glycerol assay after deproteinization. Exercise time was fixed at a regular time of day. The next day, the experiment was repeated. The order was placebo day, then treatment day.
The magnitude of the change pre and post exercise with and without TriAc was calculated and the percentage change from baseline with and without TriAc was calculated.

lateral hip fat deposits = experiment: TriAc cream before exercise for lateral hip fat deposits
Excerpt: A non obese person who ran 20 miles a week had lateral hip fat deposits which were resistant to any change.

[3] = group, exercise with the TriAc treatment

O=C(O)Cc1cc(I)c(Oc2ccc(O)c(I)c2)c(I)c1 [TriAc, [4-(4-hydroxy-3-iodophenoxy)-3,5-diiodophenyl]acetic acid]
cellulite ([1]; 8 to 16 mg TriAc per 100 ml, before exercise): little evidence of cellulite remained
contour of the buttocks [1]: smaller and smoother
glycerol response relative to baseline ([2]; no exercise, subject A, one experiment): 80%
glycerol response relative to baseline ([2]; no exercise, subject B): 13%
glycerol response relative to baseline ([2]; no exercise, subject C): −40%
glycerol response relative to baseline ([2]; with exercise, subject A): 250%
average increase of the concentration of glycerol [2, 3]: 37 µM
average increase of the concentration of glycerol above baseline [2, 3]: 124%
increase of exercise induced breakdown of fat as evidenced by plasma glycerol ([2]; group, versus placebo): over 300%
Net change in glycerol concentration after exercise ([2]; subject A, Trial 1 Treatment): 67.6 µM
Glycerol Concentration ([2]; subject A, Trial 1 Treatment, 120 micrograms TriAc cream topical, After exercise): 93.7 µM
Glycerol Concentration ([2]; subject A, Trial 1 Treatment, 120 micrograms TriAc cream topical, Before exercise (baseline)): 26.2 µM
Percentage change ([2]; subject A, Trial 1 Treatment): 258.9%
Net change in glycerol concentration after exercise ([2]; subject A, Trial 2 Treatment): 66.2 µM
Glycerol Concentration ([2]; subject A, Trial 2 Treatment, After exercise): 97.9 µM
Glycerol Concentration ([2]; subject A, Trial 2 Treatment, Before exercise (baseline)): 31.7 µM
Percentage change ([2]; subject A, Trial 2 Treatment): 208.7%
Net change in glycerol concentration after exercise ([2]; subject A, Trial 3 Treatment): 23.4 µM
Glycerol Concentration ([2]; subject A, Trial 3 Treatment, After exercise): 42.7 µM
Glycerol Concentration ([2]; subject A, Trial 3 Treatment, Before exercise (baseline)): 19.3 µM
Percentage change ([2]; subject A, Trial 3 Treatment): 121.4%
Net change in glycerol concentration after exercise ([2]; subject B, Trial 1 Treatment): 29.0 µM
Glycerol Concentration ([2]; subject B, Trial 1 Treatment, After exercise): 64.8 µM
Glycerol Concentration ([2]; subject B, Trial 1 Treatment, Before exercise (baseline)): 35.8 µM
Percentage change ([2]; subject B, Trial 1 Treatment): 80.8%
Net change in glycerol concentration after exercise ([2]; subject B, Trial 2 Treatment): 30.3 µM
Glycerol Concentration ([2]; subject B, Trial 2 Treatment, After exercise): 60.7 µM
Glycerol Concentration ([2]; subject B, Trial 2 Treatment, Before exercise (baseline)): 30.3 µM
Percentage change ([2]; subject B, Trial 2 Treatment): 100.0%
Net change in glycerol concentration after exercise ([2]; subject B, Trial 3 Treatment): 17.9 µM
Glycerol Concentration ([2]; subject B, Trial 3 Treatment, After exercise): 40.0 µM
Glycerol Concentration ([2]; subject B, Trial 3 Treatment, Before exercise (baseline)): 22.1 µM
Percentage change ([2]; subject B, Trial 3 Treatment): 80.3%
Net change in glycerol concentration after exercise ([2]; subject C, Trial 1 Treatment): 37.2 µM
Glycerol Concentration ([2]; subject C, Trial 1 Treatment, After exercise): 80.0 µM
Glycerol Concentration ([2]; subject C, Trial 1 Treatment, Before exercise (baseline)): 42.7 µM
Percentage change ([2]; subject C, Trial 1 Treatment): 87.1%
Net change in glycerol concentration after exercise ([2]; subject C, Trial 2 Treatment): 38.2 µM
Glycerol Concentration ([2]; subject C, Trial 2 Treatment, After exercise): 90.3 µM
Glycerol Concentration ([2]; subject C, Trial 2 Treatment, Before exercise (baseline)): 52.1 µM
Percentage change ([2]; subject C, Trial 2 Treatment): 73.3%
Net change in glycerol concentration after exercise ([2]; subject C, Trial 3 Treatment): 30.3 µM
Glycerol Concentration ([2]; subject C, Trial 3 Treatment, After exercise): 57.9 µM
Glycerol Concentration ([2]; subject C, Trial 3 Treatment, Before exercise (baseline)): 27.6 µM
Percentage change ([2]; subject C, Trial 3 Treatment): 110.0%
increase of effectiveness of exercise to burn fat ([2]; using percentage change in the concentration of glycerol, versus placebo): about 400%
change of fat deposits (lateral hip fat deposits; 9 mg TriAc per 100 ml base, 1 to 3 times a week before exercise, for 2 to 3 weeks): Little change
fat deposits (lateral hip fat deposits; after 5 weeks of application): could barely be discerned
